For 42 compounds, EC50 results are on record in US11760722B2 (priority 2022, dated 2023).

pEC50: −log10 of the molar value.

One test relates to SARS-CoV-2 Delta USA/MD-HP05647/2021 (Lineage B.1.617.2). The test can be described thus: microbe, parasite or virus in culture. The note with it: Severe acute respiratory syndrome coronavirus 2, Vero C1008, 4 h; read-out: Vero E6 Delta CPE/EC50. In kind it is cell-based.
Turning to `CC(C)(C)[C@H](NS(=O)(=O)c1ccc(F)c(F)c1)C(=O)N1C[C@H]2[C@@H]([C@H]1C(=O)N[C@H](C#N)C[C@@H]1CCNC1=O)C2(C)C` [Compound 99], the pEC50 was 7.65.
Turning to `Cc1ccc(S(=O)(=O)N[C@H](C(=O)N2C[C@H]3[C@@H]([C@H]2C(=O)N[C@H](C#N)C[C@@H]2CCNC2=O)C3(C)C)C(C)(C)C)s1` [Compound 118], the pEC50 was 7.63.
On to `CC(C)(C)c1ccc(S(=O)(=O)N[C@H](C(=O)N2C[C@H]3[C@@H]([C@H]2C(=O)N[C@H](C#N)C[C@@H]2CCNC2=O)C3(C)C)C(C)(C)C)s1` [Compound 117], for which the pEC50 was 6.47.
As to `CC(C)(C)[C@H](NS(=O)(=O)c1sccc1Cl)C(=O)N1C[C@H]2[C@@H]([C@H]1C(=O)N[C@H](C#N)C[C@@H]1CCNC1=O)C2(C)C` [Compound 114], the pEC50 is 7.79.
In the case of `CC(C)[C@H]1CC[C@H](C)C[C@@H]1OCC(=O)N[C@H](C(=O)N1C[C@H]2[C@@H]([C@H]1C(=O)N[C@H](C#N)C[C@@H]1CCNC1=O)C2(C)C)C(C)(C)C` [Compound 110], the pEC50 was 5.70.
`CC(C)(C)[C@H](NC(=O)C1(C(F)(F)F)CC1)C(=O)N1C[C@H]2[C@@H]([C@H]1C(=O)N[C@H](C#N)C[C@@H]1CCNC1=O)C2(C)C` [Compound 151]: the pEC50 was 5.79.
On the same count and under the same terms, then `CC(C)(C)[C@H](NS(=O)(=O)c1ccns1)C(=O)N1C[C@H]2[C@@H]([C@H]1C(=O)N[C@H](C#N)C[C@@H]1CCNC1=O)C2(C)C` [Compound 122], with 6.74.
Same read-out and setting: then `CC(C)(C)[C@H](NS(=O)(=O)c1ccc(F)cc1)C(=O)N1C[C@H]2[C@@H]([C@H]1C(=O)N[C@H](C#N)C[C@@H]1CCNC1=O)C2(C)C` [Compound 53, (1R,2S,5S)—N—((S)-1-cyano-2-((S)-2-oxopyrrolidin-3-yl)ethyl)-3-((S)-2-((4-fluorophenyl)sulfonamido)-3,3-dimethylbutanoyl)-6,6-dimethyl-3-azabicyclo[3.1.0]hexane-2-carboxamide], with 7.83.
In the case of `CC(C)(C)[C@H](NS(=O)(=O)c1cccnc1)C(=O)N1C[C@H]2[C@@H]([C@H]1C(=O)N[C@H](C#N)C[C@@H]1CCNC1=O)C2(C)C` [Compound 93], the pEC50 is 6.43.
Regarding `Cc1csc(S(=O)(=O)N[C@H](C(=O)N2C[C@H]3[C@@H]([C@H]2C(=O)N[C@H](C#N)C[C@@H]2CCNC2=O)C3(C)C)C(C)(C)C)c1` [Compound 112], the pEC50 was 7.20.
For the compound `COc1ccc(S(=O)(=O)N[C@H](C(=O)N2C[C@H]3[C@@H]([C@H]2C(=O)N[C@H](C#N)C[C@@H]2CCNC2=O)C3(C)C)C(C)(C)C)cc1` [Compound 101], the pEC50 is 9.51.
For the compound `CC(C)(C)[C@H](NS(=O)(=O)c1ccc(Cl)s1)C(=O)N1C[C@H]2[C@@H]([C@H]1C(=O)N[C@H](C#N)C[C@@H]1CCNC1=O)C2(C)C` [Compound 54], the pEC50 was greater than 8.35.
As to `CC(C)(C)[C@H](NS(=O)(=O)c1ccc2ccccc2c1)C(=O)N1C[C@H]2[C@@H]([C@H]1C(=O)N[C@H](C#N)C[C@@H]1CCNC1=O)C2(C)C` [Compound 102], the pEC50 is greater than 8.35.
As for `CC(C)(C)NC(=O)N[C@H](C(=O)N1C[C@H]2[C@@H]([C@H]1C(=O)N[C@H](C#N)C[C@@H]1CCNC1=O)C2(C)C)C(C)(C)C` [Compound 87], the pEC50 was 6.24.
As to `CCNC(=S)N[C@H](C(=O)N1C[C@H]2[C@@H]([C@H]1C(=O)N[C@H](C#N)C[C@@H]1CCNC1=O)C2(C)C)C(C)(C)C` [Compound 72], the pEC50 is 6.58.
`CC(C)(C)[C@H](NC(=O)CC#N)C(=O)N1C[C@H]2[C@@H]([C@H]1C(=O)N[C@H](C#N)C[C@@H]1CCNC1=O)C2(C)C` [Compound 33]: the pEC50 was 6.03.
Regarding `CN(C)S(=O)(=O)N[C@H](C(=O)N1C[C@H]2[C@@H]([C@H]1C(=O)N[C@H](C#N)C[C@@H]1CCNC1=O)C2(C)C)C(C)(C)C` [Compound 47, (1R,2S,5S)—N—((S)-1-cyano-2-((S)-2-oxopyrrolidin-3-yl)ethyl)-3-((S)-2-((N,N-dimethylsulfamoyl)amino)-3,3-dimethylbutanoyl)-6,6-dimethyl-3-azabicyclo[3.1.0]hexane-2-carboxamide], the pEC50 is 6.62.
Regarding `CC(C)(C)[C@H](NS(=O)(=O)c1ccccc1)C(=O)N1C[C@H]2[C@@H]([C@H]1C(=O)N[C@H](C#N)C[C@@H]1CCNC1=O)C2(C)C` [Compound 95], the pEC50 was 7.97.
Take `CC(C)(C)[C@H](NC(=O)NC1(CS(=O)(=O)C(C)(C)C)CCCCC1)C(=O)N1C[C@H]2[C@@H]([C@H]1C(=O)N[C@H](C#N)C[C@@H]1CCNC1=O)C2(C)C` [Compound 16]: the pEC50 is 5.53.
Consider `CC1(C)[C@@H]2[C@@H](C(=O)N[C@H](C#N)C[C@@H]3CCNC3=O)N(C(=O)[C@@H](NC(=O)C(F)(F)F)C34CC(C3)C4)C[C@@H]21` [Compound 50], for which the pEC50 is 6.24.
For `CC(C)(C)[C@H](NS(=O)(=O)c1ccc2c(c1)CCO2)C(=O)N1C[C@H]2[C@@H]([C@H]1C(=O)N[C@H](C#N)C[C@@H]1CCNC1=O)C2(C)C` [Compound 83], the pEC50 is 7.69.
For the compound `CC(C)(C)[C@H](NS(=O)(=O)c1ccc(F)s1)C(=O)N1C[C@H]2[C@@H]([C@H]1C(=O)N[C@H](C#N)C[C@@H]1CCNC1=O)C2(C)C` [Compound 113], the pEC50 is 7.78.
In the case of `C=C(F)C(=O)N[C@H](C(=O)N1C[C@H]2[C@@H]([C@H]1C(=O)N[C@H](C#N)C[C@@H]1CCNC1=O)C2(C)C)C(C)(C)C` [Compound 66], the pEC50 is 7.03.
On the same count and under the same terms, as for `CC(C)(C)[C@H](NC(=O)c1ccc2c(c1)CCC2)C(=O)N1C[C@H]2[C@@H]([C@H]1C(=O)N[C@H](C#N)C[C@@H]1CCNC1=O)C2(C)C` [Compound 120], the figure is 5.10.
Turning to `CCCc1ccc(S(=O)(=O)N[C@H](C(=O)N2C[C@H]3[C@@H]([C@H]2C(=O)N[C@H](C#N)C[C@@H]2CCNC2=O)C3(C)C)C(C)(C)C)s1` [Compound 171], the pEC50 was 7.09.
In the case of `CNC(=S)N[C@H](C(=O)N1C[C@H]2[C@@H]([C@H]1C(=O)N[C@H](C#N)C[C@@H]1CCNC1=O)C2(C)C)C(C)(C)C` [Compound 35], the pEC50 is 7.11.
The same measure, in the same setting: then `CC(C)(C)[C@H](NS(=O)(=O)c1ccc(C2CC2)cc1)C(=O)N1C[C@H]2[C@@H]([C@H]1C(=O)N[C@H](C#N)C[C@@H]1CCNC1=O)C2(C)C` [Compound 121], with greater than 8.35; and `CC(C)(C)[C@H](NC(=O)C(F)(Cl)C(F)(F)F)C(=O)N1C[C@H]2[C@@H]([C@H]1C(=O)N[C@H](C#N)C[C@@H]1CCNC1=O)C2(C)C` (some centres unmarked) [Compound 75], with 7.35; and `CC(C)(C)[C@H](NC(=O)CS(C)(=O)=O)C(=O)N1C[C@H]2[C@@H]([C@H]1C(=O)N[C@H](C#N)C[C@@H]1CCNC1=O)C2(C)C` [Compound 64], with 5.88.
On the same count and under the same terms, as for `CC(C)(C)[C@H](NS(=O)(=O)c1ccc(C(F)(F)F)cc1)C(=O)N1C[C@H]2[C@@H]([C@H]1C(=O)N[C@H](C#N)C[C@@H]1CCNC1=O)C2(C)C` [Compound 90], the figure is 8.47; as for `CC(C)(C)[C@H](NC(=O)C12CC(F)(C1)C2)C(=O)N1C[C@H]2[C@@H]([C@H]1C(=O)N[C@H](C#N)C[C@@H]1CCNC1=O)C2(C)C` [Compound 34], 6.56.
Same read-out and setting: as for `CC(C)(C)[C@H](NS(=O)(=O)c1cccs1)C(=O)N1C[C@H]2[C@@H]([C@H]1C(=O)N[C@H](C#N)C[C@@H]1CCNC1=O)C2(C)C` [Compound 100], the figure is 7.43; as for `CC(C)(C)[C@H](NC(=S)NC1CC1)C(=O)N1C[C@H]2[C@@H]([C@H]1C(=O)N[C@H](C#N)C[C@@H]1CCNC1=O)C2(C)C` [Compound 76], 6.08; as for `Cc1ccc(S(=O)(=O)N[C@H](C(=O)N2C[C@H]3[C@@H]([C@H]2C(=O)N[C@H](C#N)C[C@@H]2CCNC2=O)C3(C)C)C(C)(C)C)cc1` [Compound 96], greater than 8.35.
As for `CN(C)C(=S)N[C@H](C(=O)N1C[C@H]2[C@@H]([C@H]1C(=O)N[C@H](C#N)C[C@@H]1CCNC1=O)C2(C)C)C(C)(C)C` [Compound 77], the pEC50 was 5.81.
With `CC(C)(C)[C@H](NS(=O)(=O)c1cccc2ccccc12)C(=O)N1C[C@H]2[C@@H]([C@H]1C(=O)N[C@H](C#N)C[C@@H]1CCNC1=O)C2(C)C` [Compound 85], the pEC50 is greater than 8.35.
Regarding `CC(C)(C)[C@H](NC(=O)Cc1ccc2c(c1)CCC2)C(=O)N1C[C@H]2[C@@H]([C@H]1C(=O)N[C@H](C#N)C[C@@H]1CCNC1=O)C2(C)C` [Compound 82], the pEC50 was 8.02.
In the case of `CC(C)(C)[C@H](NS(=O)(=O)N1CCOCC1)C(=O)N1C[C@H]2[C@@H]([C@H]1C(=O)N[C@H](C#N)C[C@@H]1CCNC1=O)C2(C)C` [Compound 49], the pEC50 is 5.80.
With `CC(C)(C)[C@H](NS(=O)(=O)c1ccc(OC(F)(F)F)cc1)C(=O)N1C[C@H]2[C@@H]([C@H]1C(=O)N[C@H](C#N)C[C@@H]1CCNC1=O)C2(C)C` [Compound 89], the pEC50 was 7.21.
The same measure, in the same setting: as for `CC(C)(C)[C@H](NC(=O)C(F)(F)C(F)(F)C(F)(F)F)C(=O)N1C[C@H]2[C@@H]([C@H]1C(=O)N[C@H](C#N)C[C@@H]1CCNC1=O)C2(C)C` [Compound 133], the figure is 6.36; as for `CC(C)(C)[C@H](NC(=O)C12CC(C1)C2)C(=O)N1C[C@H]2[C@@H]([C@H]1C(=O)N[C@H](C#N)C[C@@H]1CCNC1=O)C2(C)C` [Compound 20], 6.42.
Take `CC(C)(C)[C@H](NC(=O)c1cnc2[nH]ccc2c1)C(=O)N1C[C@H]2[C@@H]([C@H]1C(=O)N[C@H](C#N)C[C@@H]1CCNC1=O)C2(C)C` [Compound 32]: the pEC50 was 4.00.

The same test, now with this note: read-out: Vero E6 Delta CPE/EC50.
For the compound `CC(C)(C)[C@H](NS(=O)(=O)c1ccc(F)cc1)C(=O)N1C[C@H]2[C@@H]([C@H]1C(=O)N[C@H](C#N)C[C@@H]1CCNC1=O)C2(C)C` [Compound 53, (1R,2S,5S)—N—((S)-1-cyano-2-((S)-2-oxopyrrolidin-3-yl)ethyl)-3-((S)-2-((4-fluorophenyl)sulfonamido)-3,3-dimethylbutanoyl)-6,6-dimethyl-3-azabicyclo[3.1.0]hexane-2-carboxamide], the pEC50 is 7.69.
Still for that read-out and setting: as for `C=C(F)C(=O)N[C@H](C(=O)N1C[C@H]2[C@@H]([C@H]1C(=O)N[C@H](C#N)C[C@@H]1CCNC1=O)C2(C)C)C(C)(C)C` [Compound 66], the figure is 7.01; as for `CNC(=S)N[C@H](C(=O)N1C[C@H]2[C@@H]([C@H]1C(=O)N[C@H](C#N)C[C@@H]1CCNC1=O)C2(C)C)C(C)(C)C` [Compound 35], 6.83; as for `CC(C)(C)[C@H](NC(=O)C(F)(Cl)C(F)(F)F)C(=O)N1C[C@H]2[C@@H]([C@H]1C(=O)N[C@H](C#N)C[C@@H]1CCNC1=O)C2(C)C` (some centres unmarked) [Compound 75], 7.30.
With `CC(C)(C)[C@H](NC(=O)C12CC(C1)C2)C(=O)N1C[C@H]2[C@@H]([C@H]1C(=O)N[C@H](C#N)C[C@@H]1CCNC1=O)C2(C)C` [Compound 20], the pEC50 was 6.41.
